Experimental findings from patent US12630565B2, “DNA-dependent protein kinase inhibitor” (DIZAL (JIANGSU) PHARMACEUTICAL CO., LTD., priority 2019, dated 2026) are described below.

One data set relates to MDR1, BCRP. The experiment in a line: MDCKII-MDR1-BCRP efflux assay. The format is in vitro ADME. Particulars: dog, pH 7.4, 5 μM compound, HBSS pH 7.4, read-out: MDCK-Mdr1-BCRP efflux ratio. The protocol: The apical-to-basolateral (A-B) and basolateral-to-apical (B-A) transport of compound in HBSS (25 mM HEPES, pH 7.4) was measured across MDCKII-MDR1-BCRP cell monolayers. Incubations were performed at approximately 37° C. for 120 min, with functionality of the test system being confirmed using 5 μM digoxin as a positive control substrate. Transport of 5 μM compound and control compound were determined by quantifying substrate concentration in the incubation medium of donor compartment at the beginning of the incubation period, and both donor and receiver compartments at the end of the incubation period. The data was used to calculate the apparent permeability (Papp). All incubations were performed in triplicate and integrity of the cell monolayers was confirmed using the marker Lucifer yellow.
The permeability coefficient Pexact (cm/s) was calculated using the equation: […]
The Pexact ratio was calculated using the equation: […]
The efflux ratio was calculated using the equation: […]
Where dCr/dt is the cumulative concentration of compound in the receiver chamber as a function of time (μM/s); Vr is the solution volume in the receiver chamber (0.1 mL on the apical side, 0.3 mL on the basolateral side); A is the surface area for the transport, i.e. 0.11 cm2 for the area of the monolayer; CO is the initial concentration in the donor chamber (μM).

Data set [1] can be described thus: Metabolic stability assay (human microsomal Clint). The format is in vitro ADME. The settings on record: human, pooled human liver microsomes, pH 7.4, 1 μM compound, 1 mg/mL microsomes, 1 mM NADPH, 37° C. Summed up: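 Compound (1 μM) incubated at 37 °C with pooled human liver microsomes (1 mg/mL) and 1 mM NADPH in 100 mM phosphate, pH 7.4. Samples quenched in acetonitrile at 0–30 min and analysed by LC-MS/MS for parent loss. CLint reported in μl/min/mg.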

The target in data set [2] is Full length human DNAPK protein (Homo sapiens, UniProt P78527). The experiment in a line: DNA-PK enzymatic assay (TR-FRET). Particulars: 10 μM ATP, 1.6 μM peptide substrate. The format is biochemical. (Time-resolved FRET reads energy transfer from a long-lived donor to a nearby acceptor.)
In a further data set the test system is Rat hepatocyte. The experiment in a line: Metabolic stability assay (rat hepatocyte Clint). The format is in vitro ADME. Particulars: 1 μM compound, cryopreserved hepatocytes 1 million cells per mL. Summed up: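 Compound at 1 μM incubated with cryopreserved rat hepatocytes, 1 million cells/mL, sampled 0–120 min with acetonitrile quench and LC-MS/MS quantitation. CLint (μL/min/E6) derived from elimination rate constant and half-life of parent disappearance, scaled by cell concentration.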

`Cc1cc2nccn2cc1Nc1ncc2c(C)nn(C3CCOCC3)c2n1` [Example 14, 3-methyl-N-(7-methylimidazo[1,2-a]pyridin-6-yl)-1-(tetrahydro-2H-pyran-4-yl)-1H-pyrazolo[3,4-d]pyrimidin-6-amine]: the efflux ratio at 120 min, 5 μM in the data set with MDR1, BCRP worked out at 2.3. For the same compound, the microsomal CLint – broadly, the capacity of the preparation to metabolise the compound, expressed as a volume cleared per time – at 1 μM in data set [1] amounted to 9.9 µL/min/mg. In addition, in data set [2], the IC50 (as a rule, the concentration at which inhibition is half-maximal) came to 1.6 nM. The “Rat hepatocyte CLint (μl/min/10^−6 cells)” value (“Rat hepatocyte CLint” for short) with Rat hepatocyte turned out to be 1.7 μl/min/10^−6 cells.
`Cc1cc2ncnn2cc1Nc1ncc2c(n1)c(C1CCCCC1)nn2C` [Example 5, 3-cyclohexyl-1-methyl-N-(7-methyl-[1,2,4]triazolo[1,5-a]pyridin-6-yl)-1H-pyrazolo[4,3-d]pyrimidin-5-amine]: in the data set on MDR1, BCRP, the efflux ratio at 120 min, 5 μM was 0.8. This compound gave an intrinsic metabolic clearance (microsomal CLint) at 1 μM in data set [1] of 135 µL/min/mg. Moreover, the IC50 in data set [2] came out at 0.4 nM. Besides, the “Rat hepatocyte CLint” value in the data set on Rat hepatocyte is 22.8 μl/min/10^−6 cells.
Regarding `Cc1cc2ncnn2cc1Nc1ncc2c(n1)c(C1CCC(F)(F)CC1)nn2C` [Example 9, 3-(4,4-difluorocyclohexyl)-1-methyl-N-(7-methyl-[1,2,4]triazolo[1,5-a]pyridin-6-yl)-1H-pyrazolo[4,3-d]pyrimidin-5-amine], in the data set with MDR1, BCRP, the efflux ratio at 120 min, 5 μM worked out at 1.3. In data set [1], this compound had a microsomal CLint at 1 μM of 135 µL/min/mg. The same compound gave an IC50 in data set [2] of 0.7 nM. In the data set with Rat hepatocyte, the “Rat hepatocyte CLint” value worked out at 11.3 μl/min/10^−6 cells.
`CO[C@H]1CC[C@@H](n2nc(C)c3cnc(Nc4cn5ncnc5cc4C)nc32)CC1` [Example 25, 1-((1s,4s)-4-methoxycyclohexyl)-3-methyl-N-(7-methyl-[1,2,4]triazolo[1,5-a]pyridin-6-yl)-1H-pyrazolo[3,4-d]pyrimidin-6-amine]: the efflux ratio at 120 min, 5 μM with MDR1, BCRP was 1.3. In data set [1], this compound returned a microsomal CLint at 1 μM of 209 µL/min/mg. Also, the IC50 in data set [2] is 1.8 nM. In addition, in the data set on Rat hepatocyte, the “Rat hepatocyte CLint” value was 17.7 μl/min/10^−6 cells.
Consider `Cc1cc2nccn2cc1Nc1ncc2c(C)nn(CC(C)C#N)c2n1` (stereo not drawn) [Example 80, 2-methyl-3-(3-methyl-6-((7-methylimidazo[1,2-a]pyridin-6-yl)amino)-1H-pyrazolo[3,4-d]pyrimidin-1-yl)propanenitrile], for which the efflux ratio at 120 min, 5 μM in the data set on MDR1, BCRP is 19. This compound came in with a microsomal CLint at 1 μM in data set [1] of 23.5 µL/min/mg. This compound had an IC50 in data set [2] of 2.1 nM. Also, in the data set on Rat hepatocyte, the “Rat hepatocyte CLint” value is reported as 9.3 μl/min/10^−6 cells.
The matching figures for `Cc1cc2ncnn2cc1Nc1ncc2c(C)nn(C3CC4(COC4)C3)c2n1` [Example 42, 3-methyl-N-(7-methyl-[1,2,4]triazolo[1,5-a]pyridin-6-yl)-1-(2-oxaspiro[3.3]heptan-6-yl)-1H-pyrazolo[3,4-d]pyrimidin-6-amine]: 4.8, 19.5 µL/min/mg, 7.5 nM and 34.2 μl/min/10^−6 cells.
The matching figures for `Cc1cc2ncnn2cc1Nc1ncc2c(C)nn([C@H]3CC[C@@H](O)CC3)c2n1` [Example 32, (1s,4s)-4-(3-methyl-6-((7-methyl-[1,2,4]triazolo[1,5-a]pyridin-6-yl)amino)-1H-pyrazolo[3,4-d]pyrimidin-1-yl)cyclohexan-1-ol]: 9.4, 9.1 µL/min/mg, 1.9 nM and 11.5 μl/min/10^−6 cells.
In the case of `Cc1cc2ncnn2cc1Nc1ncc2c(C)nn(C3CCCCC3)c2n1` [Example 20, 1-cyclohexyl-3-methyl-N-(7-methyl-[1,2,4]triazolo[1,5-a]pyridin-6-yl)-1H-pyrazolo[3,4-d]pyrimidin-6-amine], the efflux ratio at 120 min, 5 μM in the data set on MDR1, BCRP is 0.8. Further, the microsomal CLint at 1 μM in data set [1] was 117 µL/min/mg. In data set [2], this compound gave an IC50 of 1.3 nM. For the same compound, the “Rat hepatocyte CLint” value in the data set with Rat hepatocyte was determined as 52.0 μl/min/10^−6 cells.
With `Cc1cc2ncnn2cc1Nc1ncc2c(C)nn(C3CCN(C)CC3)c2n1` [Example 19, 3-methyl-N-(7-methyl-[1,2,4]triazolo[1,5-a]pyridin-6-yl)-1-(1-methylpiperidin-4-yl)-1H-pyrazolo[3,4-d]pyrimidin-6-amine], in the data set on MDR1, BCRP, the efflux ratio at 120 min, 5 μM was 13.1. This compound also yielded a microsomal CLint at 1 μM in data set [1] of 4.3 µL/min/mg. In addition, in data set [2], 25.9 nM corresponded to half-maximal inhibition (IC50). The “Rat hepatocyte CLint” value in the data set with Rat hepatocyte stood at 6.8 μl/min/10^−6 cells.
The matching figures for `Cc1cc2ncnn2cc1Nc1ncc2c(C)nn(C3CCOC(C)C3)c2n1` (single isomer, unassigned) [Example 35, 3-methyl-N-(7-methyl-[1,2,4]triazolo[1,5-a]pyridin-6-yl)-1-(2-methyltetrahydro-2H-pyran-4-yl)-1H-pyrazolo[3,4-d]pyrimidin-6-amine]: 1.7, 55.4 µL/min/mg, 2.8 nM and 21.7 μl/min/10^−6 cells.
As to `Cc1cc2ncnn2cc1Nc1ncc2c(C)nn(C3CCOC(C)(C)C3)c2n1` (single isomer, unassigned) [Example 116, 1-(2,2-dimethyltetrahydro-2H-pyran-4-yl)-3-methyl-N-(7-methyl-[1,2,4]triazolo[1,5-a]pyridin-6-yl)-1H-pyrazolo[3,4-d]pyrimidin-6-amine], the efflux ratio at 120 min, 5 μM in the data set with MDR1, BCRP came out at 2. In data set [1], the microsomal CLint at 1 μM came out at 71.1 µL/min/mg. Further, in data set [2], the IC50 was 1.6 nM. Further, in the data set with Rat hepatocyte, the “Rat hepatocyte CLint” value was 9.6 μl/min/10^−6 cells.
The like results for `Cc1cc2ncnn2cc1Nc1ncc2c(C(F)(F)F)nn(C3CCOCC3)c2n1` [Example 17, N-(7-methyl-[1,2,4]triazolo[1,5-a]pyridin-6-yl)-1-(tetrahydro-2H-pyran-4-yl)-3-(trifluoromethyl)-1H-pyrazolo[3,4-d]pyrimidin-6-amine] were, in that order, 1.5, 54.7 µL/min/mg, 5.2 nM and 7.2 μl/min/10^−6 cells.
Regarding `Cc1cc(-c2nn(C)c3cnc(Nc4cn5ncnc5cc4C)nc23)ccn1` [Example 102, 1-methyl-N-(7-methyl-[1,2,4]triazolo[1,5-a]pyridin-6-yl)-3-(2-methylpyridin-4-yl)-1H-pyrazolo[4,3-d]pyrimidin-5-amine], the efflux ratio at 120 min, 5 μM in the data set with MDR1, BCRP was 14. In data set [1], this compound returned an intrinsic metabolic clearance (microsomal CLint) at 1 μM of 15 µL/min/mg. Also, inhibition in data set [2] was half-maximal at 0.9 nM (IC50). Also, the “Rat hepatocyte CLint” value in the data set on Rat hepatocyte was 32.0 μl/min/10^−6 cells.
The like results for `Cc1cc2ncnn2cc1Nc1ncc2c(C)nn(CCCC(F)(F)F)c2n1` [Example 58, 3-methyl-N-(7-methyl-[1,2,4]triazolo[1,5-a]pyridin-6-yl)-1-(4,4,4-trifluorobutyl)-1H-pyrazolo[3,4-d]pyrimidin-6-amine] were, in that order, 1.9, 70.8 µL/min/mg, 2.2 nM and 32.9 μl/min/10^−6 cells.
For the compound `Cc1cc2ncnn2cc1Nc1ncc2c(C)nn(C(C)C)c2n1` [Example 59, 1-isopropyl-3-methyl-N-(7-methyl-[1,2,4]triazolo[1,5-a]pyridin-6-yl)-1H-pyrazolo[3,4-d]pyrimidin-6-amine], the efflux ratio at 120 min, 5 μM in the data set on MDR1, BCRP worked out at 0.7. This compound gave a microsomal CLint at 1 μM in data set [1] of 20.2 µL/min/mg. The same compound yielded an IC50 in data set [2] of 4.5 nM. The “Rat hepatocyte CLint” value in the data set with Rat hepatocyte is recorded as 5.5 μl/min/10^−6 cells.
